From patent publication US6673798B2, “PDGF receptor kinase inhibitory compounds, their preparation, purification and pharmaceutical compositions including same” (Yissum Research Development Company of the Hebrew …, priority 1999, dated 2004)

Assays:
neointimal formation = conditions: controlled local delivery, rat carotid balloon injury model; cited from earlier work
[1] = tested on: fibroblast growth factor-dependent DNA synthesis; conditions: relative to PDGF-dependent DNA synthesis; cited from earlier work
[2] = tested on: sis-transfected NIH 3T3 cells; conditions: cited from earlier work
[3] = target: vascular endothelial growth factor receptor KDR (Homo sapiens, UniProt P35968); conditions: cited from earlier work
[4] = tested on: porcine aortic endothelial cells; conditions: cited from earlier work
human PDGF α-receptor = human PDGF α-receptor (Homo sapiens, UniProt P16234); conditions: cited from earlier work
Sequence of human PDGF α-receptor (P16234 24-1089): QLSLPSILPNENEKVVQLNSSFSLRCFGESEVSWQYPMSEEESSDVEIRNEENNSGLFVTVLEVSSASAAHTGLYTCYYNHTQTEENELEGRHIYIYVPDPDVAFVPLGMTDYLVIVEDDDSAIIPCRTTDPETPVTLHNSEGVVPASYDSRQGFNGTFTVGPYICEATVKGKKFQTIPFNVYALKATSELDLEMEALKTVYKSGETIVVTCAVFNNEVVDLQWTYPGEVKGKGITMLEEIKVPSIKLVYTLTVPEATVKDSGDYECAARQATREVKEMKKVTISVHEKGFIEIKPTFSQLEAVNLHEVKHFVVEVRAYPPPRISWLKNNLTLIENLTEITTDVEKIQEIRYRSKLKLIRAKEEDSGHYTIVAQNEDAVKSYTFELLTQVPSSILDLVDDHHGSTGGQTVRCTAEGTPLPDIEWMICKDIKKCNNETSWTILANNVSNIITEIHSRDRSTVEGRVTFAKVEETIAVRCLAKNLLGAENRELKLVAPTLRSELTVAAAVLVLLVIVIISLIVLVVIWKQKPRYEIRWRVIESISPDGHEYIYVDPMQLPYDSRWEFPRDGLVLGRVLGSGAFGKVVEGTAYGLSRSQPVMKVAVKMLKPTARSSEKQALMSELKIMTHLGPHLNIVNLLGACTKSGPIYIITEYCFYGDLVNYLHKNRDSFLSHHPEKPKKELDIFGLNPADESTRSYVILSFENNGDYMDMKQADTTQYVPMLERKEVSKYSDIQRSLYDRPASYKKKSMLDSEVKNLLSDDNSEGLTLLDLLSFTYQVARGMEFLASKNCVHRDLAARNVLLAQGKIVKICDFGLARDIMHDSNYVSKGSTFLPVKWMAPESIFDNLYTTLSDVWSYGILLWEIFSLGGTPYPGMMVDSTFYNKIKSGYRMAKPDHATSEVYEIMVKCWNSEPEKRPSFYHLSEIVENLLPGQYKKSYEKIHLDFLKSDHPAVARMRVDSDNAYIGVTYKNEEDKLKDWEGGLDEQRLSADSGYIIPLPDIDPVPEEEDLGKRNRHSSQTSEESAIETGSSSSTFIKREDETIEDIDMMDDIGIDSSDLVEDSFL

[5] = tested on: src-transformed NIH 3T3 cells; conditions: cited from earlier work
[6] = tested on: DNA synthesis stimulated by insulin, by epidermal growth factor, or by a combination of both; conditions: cited from earlier work
[7] = target: stem cell factor receptor (c-Kit) (Homo sapiens, UniProt P10721); conditions: cited from earlier work
Sequence of stem cell factor receptor (c-Kit) (P10721 26-976): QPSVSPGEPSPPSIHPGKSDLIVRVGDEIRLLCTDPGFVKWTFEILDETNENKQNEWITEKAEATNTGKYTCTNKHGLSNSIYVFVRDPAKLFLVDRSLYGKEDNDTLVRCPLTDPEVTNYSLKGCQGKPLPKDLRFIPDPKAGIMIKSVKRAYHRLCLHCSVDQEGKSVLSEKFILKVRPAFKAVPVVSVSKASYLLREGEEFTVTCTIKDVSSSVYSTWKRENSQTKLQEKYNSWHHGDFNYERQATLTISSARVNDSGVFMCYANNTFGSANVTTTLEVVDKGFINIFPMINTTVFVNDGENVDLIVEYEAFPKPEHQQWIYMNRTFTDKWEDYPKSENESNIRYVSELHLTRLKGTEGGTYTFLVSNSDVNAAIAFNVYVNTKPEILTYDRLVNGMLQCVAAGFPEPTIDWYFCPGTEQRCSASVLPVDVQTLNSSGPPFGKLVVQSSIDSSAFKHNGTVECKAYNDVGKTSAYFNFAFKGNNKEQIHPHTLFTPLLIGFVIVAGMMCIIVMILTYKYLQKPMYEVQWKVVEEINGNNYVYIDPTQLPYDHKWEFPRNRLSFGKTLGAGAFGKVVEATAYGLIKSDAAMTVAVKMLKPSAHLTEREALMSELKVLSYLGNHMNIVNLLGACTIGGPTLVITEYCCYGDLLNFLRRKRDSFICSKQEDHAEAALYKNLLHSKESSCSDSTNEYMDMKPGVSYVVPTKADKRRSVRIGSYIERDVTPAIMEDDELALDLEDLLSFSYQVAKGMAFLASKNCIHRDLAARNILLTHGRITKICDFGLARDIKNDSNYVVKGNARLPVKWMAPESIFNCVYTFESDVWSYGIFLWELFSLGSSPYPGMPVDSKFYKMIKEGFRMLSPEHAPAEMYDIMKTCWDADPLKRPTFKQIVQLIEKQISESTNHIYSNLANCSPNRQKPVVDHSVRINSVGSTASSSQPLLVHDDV

PDGF β-receptor [8] = target: T1, PDGF β-receptor (Homo sapiens, UniProt P09619); conditions: cited from earlier work
T1 sequence (P09619 33-1106): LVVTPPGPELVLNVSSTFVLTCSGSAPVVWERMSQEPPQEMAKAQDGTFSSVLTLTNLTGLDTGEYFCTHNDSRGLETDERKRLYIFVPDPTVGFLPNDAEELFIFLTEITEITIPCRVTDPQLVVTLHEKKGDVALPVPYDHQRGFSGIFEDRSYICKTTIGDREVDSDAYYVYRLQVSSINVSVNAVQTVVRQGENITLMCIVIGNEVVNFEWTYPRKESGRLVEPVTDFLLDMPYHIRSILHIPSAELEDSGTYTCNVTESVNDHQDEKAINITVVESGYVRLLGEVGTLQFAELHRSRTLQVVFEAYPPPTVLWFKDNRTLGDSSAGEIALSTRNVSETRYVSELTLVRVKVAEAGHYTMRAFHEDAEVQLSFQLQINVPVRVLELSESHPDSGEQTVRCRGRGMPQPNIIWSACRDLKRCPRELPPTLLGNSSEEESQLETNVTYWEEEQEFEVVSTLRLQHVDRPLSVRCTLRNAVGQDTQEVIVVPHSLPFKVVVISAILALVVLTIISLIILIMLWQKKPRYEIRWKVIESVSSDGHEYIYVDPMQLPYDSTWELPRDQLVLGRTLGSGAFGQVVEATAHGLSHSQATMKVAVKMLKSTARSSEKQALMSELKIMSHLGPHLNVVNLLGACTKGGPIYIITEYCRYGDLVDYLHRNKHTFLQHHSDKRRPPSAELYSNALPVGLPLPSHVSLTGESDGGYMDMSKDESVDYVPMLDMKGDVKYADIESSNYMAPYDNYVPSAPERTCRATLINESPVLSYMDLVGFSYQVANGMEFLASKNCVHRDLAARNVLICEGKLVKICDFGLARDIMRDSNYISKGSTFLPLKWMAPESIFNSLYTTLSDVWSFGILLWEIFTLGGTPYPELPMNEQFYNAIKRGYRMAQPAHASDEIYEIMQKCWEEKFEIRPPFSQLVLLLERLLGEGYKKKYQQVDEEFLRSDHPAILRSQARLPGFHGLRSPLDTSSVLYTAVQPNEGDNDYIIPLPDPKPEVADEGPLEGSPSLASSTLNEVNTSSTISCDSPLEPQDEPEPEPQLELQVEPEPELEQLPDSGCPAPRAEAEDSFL

[9] = target: epidermal growth factor receptor (Homo sapiens, UniProt P00533); conditions: cited from earlier work
Sequence of epidermal growth factor receptor (P00533 25-1210, species assumed): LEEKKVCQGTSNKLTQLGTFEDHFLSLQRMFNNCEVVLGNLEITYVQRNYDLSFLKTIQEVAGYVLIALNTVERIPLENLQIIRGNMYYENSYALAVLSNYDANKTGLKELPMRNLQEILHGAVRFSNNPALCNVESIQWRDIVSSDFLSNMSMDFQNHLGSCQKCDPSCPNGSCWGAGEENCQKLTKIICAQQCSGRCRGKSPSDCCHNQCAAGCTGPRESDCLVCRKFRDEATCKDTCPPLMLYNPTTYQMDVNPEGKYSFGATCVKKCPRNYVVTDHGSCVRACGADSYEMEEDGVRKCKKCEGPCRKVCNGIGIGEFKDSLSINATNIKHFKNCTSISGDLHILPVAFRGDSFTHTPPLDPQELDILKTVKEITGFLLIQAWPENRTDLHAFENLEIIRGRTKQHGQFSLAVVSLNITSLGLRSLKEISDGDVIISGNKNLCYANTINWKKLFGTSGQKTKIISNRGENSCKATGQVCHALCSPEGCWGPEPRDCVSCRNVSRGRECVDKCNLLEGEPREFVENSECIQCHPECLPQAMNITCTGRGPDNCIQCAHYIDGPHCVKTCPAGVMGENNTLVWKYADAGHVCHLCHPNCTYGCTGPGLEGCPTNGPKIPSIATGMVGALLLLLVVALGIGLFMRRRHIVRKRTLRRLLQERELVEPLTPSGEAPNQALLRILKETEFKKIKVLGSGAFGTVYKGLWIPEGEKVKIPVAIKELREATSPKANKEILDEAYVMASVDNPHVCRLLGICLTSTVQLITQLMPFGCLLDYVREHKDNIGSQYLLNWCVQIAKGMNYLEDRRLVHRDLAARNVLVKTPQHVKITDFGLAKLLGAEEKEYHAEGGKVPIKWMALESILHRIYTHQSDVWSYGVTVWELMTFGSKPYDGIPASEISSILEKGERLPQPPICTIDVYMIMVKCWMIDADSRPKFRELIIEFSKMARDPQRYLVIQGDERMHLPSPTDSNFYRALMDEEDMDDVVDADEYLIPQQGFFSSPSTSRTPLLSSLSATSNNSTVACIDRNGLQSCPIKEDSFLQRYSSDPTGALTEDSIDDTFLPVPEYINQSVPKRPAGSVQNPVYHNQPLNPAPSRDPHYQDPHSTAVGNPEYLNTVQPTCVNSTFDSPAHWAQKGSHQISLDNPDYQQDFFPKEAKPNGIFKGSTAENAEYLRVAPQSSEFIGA

p60c-src(F527) = target: T2, p60c-src(F527) (Gallus gallus, UniProt P00523, Y527F); conditions: immunoprecipitated from src-transformed NIH 3T3 cells; cited from earlier work
T2 construct: host or cells: src-transformed NIH 3T3 cells (immunoprecipitate)

PDGF β-receptor [10] = target: T1, PDGF β-receptor; test: PDGF-induced PDGFR autophosphorylation in intact PAEC cells; format: cell-based; parameters: expressed in transfected cells; host or cells: porcine aortic endothelial cells (PAEC), stably transfected; conditions: intact PAEC cells expressing PDGFR, PDGF-BB stimulated; read-out: IC50 (50% inhibition of phosphorylation) PDGFR
Procedure: Effect of tyrphostins on PDGF-induced PDGFR autophosphorylation in intact PAEC cells: PAEC cells, transfected with either PDGFR or KDR, cultivated in Ham's F-12 medium supplemented with 10% fetal calf serum (FCS), were synchronized for 20 hours in a medium containing 0.01% BSA. […] After stimulation, the cells were solubilized in Nonidet P-40 (1%) containing lysis buffer.
The analysis of PDGF β-receptor phosphorylation was performed as follows. Cell lysates were subjected to immunoprecipitation using the PDGF β-receptor specific antiserum R3 [5]. The precipitates were subjected to polyacrylamide (7.5%) gel electrophoresis in presence of sodium dodecyl sulfate (SDS-PAGE) and were thereafter blotted onto a nitrocellulose membrane (Hybond C-EXTRA, Amersham). Phosphorylated proteins were detected by immunoblotting using the horseradish-peroxidase conjugated phosphotyrosine antibodies PY20 and 4G10 (Upstate Biotechnology), followed by application of secondary horseradish-peroxidase conjugated goat-anti-mouse antibody and chemoluminescence-based detection (ECL, Amersham) and autoradiography.
The data in Table 9 presents the differential potencies of the various compounds with respect to PDGFR and KDR, as was performed on intact PAEC cells expressing these receptors (see experimental methods section above).

porcine SMC = test: Inhibition of SMC proliferation and recovery (cell count); format: cell-based; conditions: 10 μM; for mean reduction in SMC count by day 3: compared to DMSO treated control cells; for reversibility of the inhibitory effect on SMC proliferation: cultures washed on day 7, recovery counted day 13
Procedure: Smooth muscle cells (SMC) were obtained under aseptic conditions from porcine abdominal aortas. Each artery was cut open and the endothelial surface mechanically scraped. The vessels were then cut into 2 mm^2 fragments which were placed in culture dishes with Dulbecco's modified Eagle's medium (DMEM) supplemented with 15% (v/v) fetal calf serum (FCS), 100 u/ml penicillin, 100 μg/ml streptomycin, and […]. The tissue fragments were then placed in an incubator at 37° C. under 9% CO2 atmosphere until SMC outgrowth was detected (typically within 3-7 days). […] For experiments testing the effect of tyrphostins on growth inhibition and recovery (see below), SMC from passages 1-3 were replated in 15 mm wells pretreated with 3 μg/cm^2 fibronectin (Biological Industries, Kibbutz Beit Haemek, Israel) at 15,000 cells/well.
Inhibition of cell proliferation and recovery: Monolayer cell growth inhibition and recovery experiments were repeated 3 or 4 times. Each experiment was performed in triplicate. Approximately 15,000 cells (SMC or PAEC) in 1 ml of culture medium supplemented with either 15% FCS (SMC) or 10% FCS (PAEC) were seeded on day 0 in 15 mm-wells precoated with fibronectin (SMC) or uncoated (PAEC). Cultures were treated with 10 μM of the following tyrphostin compounds: AG2033, AC2034, AG2043 and AG2044 (for SMC) or AG2033 (for PAEC) dissolved in 0.1% DMSO on days 1 and 3. On day 7, cultures were washed and the cells allowed to recover. Typically cells were counted on days 3 and 6 for inhibition, and on day 13 for recovery. The medium supplemented with serum (DMEM for SMC and Ham's F12 for PAEC) was changed every other day throughout the experiment.
Cells were grown in the presence of the specified tyrphostins and were counted on days 3, 6 and 13 in culture. On day 7 the cultures were washed and the cells allowed to recover. […] The inhibitory effect of all three compounds was reversible, and the cells resumed normal growth response as soon as the treatment with the tyrphostins was withdrawn.

PDGFβR = target: T3, PDGFβR (Mus musculus, UniProt P05622); test: PDGF-induced PDGFβR autophosphorylation in intact Swiss 3T3 cells (FIG. 8); format: cell-based; conditions: compared with AG2033 at 1 μM
T3 construct: A preparation of purified PDGFR from Swiss 3T3 cell membranes was used; endogenous in cells
Procedure: Kinase reactions, using an isolated PDGFβR preparation, in the presence of 0.03-3 μM tyrphostin, were conducted, utilizing [γ-^32P]ATP as probe. Densitometric evaluation, relative to control lacking the tyrphostin inhibitor (100%), results in the percent autokinase activity, presented in Table 8 and in the dose-response curves for the purified transoid isomers AG2033 (FIG. 6) and AG2043 (FIG. 7). Further comparison between the resulting autoradiogrms for each pair of geometrical isomers AG2033 and AG2034 (upper panel); AG2043 and AG2044 (lower panel), for their inhibitory activity towards PDGF-induced PDGFβR autophosphorylation (concentration range: 0.1-10 μM) in intact cells is presented in FIG. 8. […] Similar potency relation exists between the AG2043 and AG2044 isomers.

melting point [°C] | IC50 (PDGF β-receptor [10]) [µM] | Structure (SMILES) | blocking effect on fibroblast growth factor-dependent DNA synthesis [1] | effect on DNA synthesis stimulated by insulin, EGF or a combination of both [6] | effect on epidermal growth factor receptor autophosphorylation [9] | mean reduction in SMC count by day 3 (porcine SMC) [%] | reversibility of the inhibitory effect on SMC proliferation (porcine SMC) | further results
– | – | CC(C)(C)c1cc(C=C(C#N)C#N)cc(C(C)(C)C)c1O [AG17] | – | – | – | – | – | inhibition of neointimal formation (neointimal formation): effectively inhibits
– | – | COc1cc2ncc(-c3ccccc3)nc2cc1OC [AG1296] | over an order of magnitude weaker blocking effect | weak effects | no effect | – | – | effect on transformed phenotype of sis-transfected NIH 3T3 cells [2]: reverses the transformed phenotype; effect on autophosphorylation of KDR [3]: no effect; effect on DNA synthesis induced by VEGF [4]: no effect; inhibition of signalling of human PDGF α-receptor (human PDGF α-receptor): potently inhibits; effect on src-transformed NIH 3T3 cells [5]: no effect; inhibition of signalling of stem cell factor receptor (c-Kit) [7]: potently inhibits; inhibition of signalling of human PDGF β-receptor (PDGF β-receptor [8]): potently inhibits; effect on activity of kinase p60c-src(F527) (p60c-src(F527)): no effect
218 | 5 | Cc1nc2cc3ncc(-c4cccs4)nc3cc2n1C [AG2044, 1,2-dimethyl-7-(2-thiophene) imidazolo[5,4-g]quinoxaline] | – | – | – | 84 | completely reversible | –
218 | 10 | Cc1nc2cc3ncc(-c4ccccc4)nc3cc2n1C [AG2034, 1,2-dimethyl-7-phenyl imidazolo[5,4-g]quinoxaline] | – | – | – | – | – | concentration giving similar (marked) inhibition of PDGFβR autophosphorylation in intact cells (PDGFβR): 10 to 30 µM
– | – | Cc1cc2ncc(-c3ccccc3)nc2cc1C [AG1295] | over an order of magnitude weaker blocking effect | weak effects | no effect | 61 | completely reversible | –
